Measured values as given in patent publication US20140242707A1, “Compositions and Methods for Diagnosing Hypercoagulability and Hypocoagulability” (Philadelphia Health & Education Corporation d/b/a Drexel …, priority 2011, published 2014).
Where two headings read alike, the source gives them in different places.

What was measured:
human or rabbit plasma = conditions: 100 μM CORM-2, humans or rabbits; cited from earlier work
ear bleeding time = conditions: CORM-2 intravenously, cited from earlier work
[1] = test system: Smoker and normal subject plasma; experiment: Thrombelastography of smoker and normal subject plasma (COHF assay); assay type: biochemical, human; conditions: for final elastic modulus (G), within group vs Control: smoker and normal plasma, 100 μM CORM-2 or 30 mM PHA
Protocol: Smoking subjects, free of thrombotic or hemorrhagic disease, between the ages of 19 to 50 years of age were recruited (n=20). All comparative data are presented as mean±SD. The male:female ratio (M:F) was 14:6, and the smoking group's age was 32.8±8.7 years. This cohort smoked 1.0±0.4 packs of cigarettes per day. After written consent was obtained, the smoking subjects verified that they had smoked two cigarettes within 90 minutes prior to presentation as they would ordinarily do during the day. Noninvasive pulse oximetry was performed, with COHb found to be 5.0±2.7% for the smoking cohort. Whole blood was obtained from the smokers via venipuncture of an antecubital or hand vein and was anticoagulated with sodium citrate (9 parts blood to 1 part citrate). The blood was immediately centrifuged at 3000×g for 15 minutes at room temperature, with plasma decanted, aliquoted and stored at −80° C. prior to experimentation. Frozen, citrated plasma collected from 20 nonsmoking, age-matched normal subjects (30.7±8.7 years, M:F of 10:10) was obtained from a commercial source. Smoker and normal subject plasma was thawed and subjected to thrombelastographic analyses as previously described for 15 min at 37° C. (Nielsen et al., 2011, Blood Coagul Fibrinolysis, 22: 657-661). […] This pattern of enhanced clot development without decreased time to onset of coagulation is typical of CO exposure (Nielsen et al., 2009, Blood Coagul Fibrinolysis, 20: 377-380; Nielsen et al., 2010, Blood Coagul Fibrinolysis, 21: 349-353; Nielsen et al., 2011, Blood Coagul Fibrinolysis, 22: 657-661). […] Using a modification of the previously described assay (Nielsen et al., 2011, Blood Coagul Fibrinolysis, 22: 657-661), hypercoagulability was defined as a G value 95% confidence interval value of the normal cohort (2720 dynes/cm^2). For COHF likely to be present, G values had to increase≦the average percent seen in normal subjects (≦78%) in the presence of CORM-2, and G values had to decrease≦the average normal percent (≦74%) in the presence of PHA. Using these definitions, 10 smokers were hypercoagulable; 9 smokers had kinetically detectable COHF; and 5 were both hypercoagulable and COHF positive (25% of the cohort). Of interest, 3 smokers had neither hypercoagulability nor detectable COHF (15% of the cohort), with the remaining 12 smokers either hypercoagulable only or COHF positive only (60% of the population). […]

Row | SMILES | increase in MRTG (human or rabbit plasma) | increase in TTG (human or rabbit plasma) | ear bleeding time (ear bleeding time; rabbits administered intravenous tPA) | ear bleeding time (ear bleeding time; rabbits with platelet inhibition by aspirin and clopidogrel) | average percent increase in G ([1]; normal subjects, 100 μM CORM-2) [%] | final elastic modulus (G), within group vs Control [1] | average percent decrease in G ([1]; normal subjects, 30 mM PHA) [%]
1 | [C-]#[O+].[C-]#[O+].[C-]#[O+].[C-]#[O+].[C-]#[O+].[C-]#[O+].[Cl][Ru][Cl].[Cl][Ru][Cl] [CORM-2, tricarbonyldichlororuthenium (II) dimer] | 64-100% | 51-68% | near normal | normal | 78 | significantly increased | 
2 | ONc1ccccc1 [PHA, phenylhydroxylamine] |  |  |  |  |  | significantly decreased | 74
